The text below walks through data of patent publication US10815241B2, “Optically active azabicyclo ring derivative” (priority 2018, dated 2020).

One series has as its system MEIS1. Briefly: Test 3: inhibition of mRNA transcription, MEIS1 in MV4;11 cells. It is filed as cell-based. The settings on record: for mRNA at 1 μM (% control) MEIS1: MV4;11 cells, 20 to 24 hours, relative to GAPDH; for mRNA transcription inhibition activity: statement in words, MEIS1 and HOXA9, MV4;11 cells. The text has this: (§1) MV4; 11 cells were obtained from American Type Culture Collection (ATCC). […] The expression level of each obtained gene (MEIS1 and HOXA9) was fitted with the expression level of mRNA of GAPDH.

The test system of another series is MOLM-13 cells. The series is described as follows: Test 2: inhibition of cell proliferation, MOLM-13. To be noted: 7 days, PrestoBlue cell viability. The class given is cell-based. On the procedure: (§2) RS4; 11 cells were obtained from American Type Culture Collection (ATCC). […] MOLM-13 cells were separately obtained from DSMZ (Deutsche Sammlung von Mikroorganismen und Zellkulturen GmbH).
(§3) The cells were plated to a 96-well plate in 2000 cells/well, each test compound was added thereto to adjust the final concentration of DMSO to 0.1% of DMSO, and the cells were cultured for 7 days. After the cultivation, the cell viability was calculated with PrestoBlue™ Cell Viability Reagent (Invitrogen, A13261).

The next series relates to RS4; 11 cells. The series is described as follows: Test 2: inhibition of cell proliferation, RS4;11. The settings on record: for IC50: RS4;11 cells, 7 days, PrestoBlue cell viability; for cell proliferation inhibition activity: statement in words, RS4;11 and MOLM-13 cells. It is filed as cell-based. On the procedure: as §2, §3
In the next series the test system is HOXA9. Briefly: Test 3: inhibition of mRNA transcription, HOXA9 in MV4;11 cells. It is filed as cell-based. To be noted: 20 to 24 hours, relative to GAPDH.
Source text: as §1

Series [1] addresses hERG (human Ether-a-go-go Related Gene) (Homo sapiens (Human), UniProt Q12809). Briefly: Test 4: hERG inhibition (QPatch HT, CHO cells stably expressing hERG). To be noted: for hERG/RS4; 11: hERG IC50 divided by RS4;11 proliferation IC50. A general note: Block of hERG is tested as a sign of cardiac risk.
Series [2] addresses Menin-MLL binding (His-Menin1-615 / MLL1-172-FLAG) (Homo sapiens (Human), UniProt O00255). The series is described as follows: Test 1: inhibition of the Menin-MLL binding (HTRF). On the procedure: After the incubation, the signal was detected with RUBYstar (BMG LABTECH).
(In general: In TR-FRET formats the signal depends on donor and acceptor labels being close together.)

The mark [3] stands for this setting: read-out: hERG inhibition IC50, hERG current, CHO cells.

Where two headings read alike, the source gives them in different places.

Sequence of Menin-MLL binding (His-Menin1-615 / MLL1-172-FLAG) (O00255 other isoform, or with tags, fused parts or gaps): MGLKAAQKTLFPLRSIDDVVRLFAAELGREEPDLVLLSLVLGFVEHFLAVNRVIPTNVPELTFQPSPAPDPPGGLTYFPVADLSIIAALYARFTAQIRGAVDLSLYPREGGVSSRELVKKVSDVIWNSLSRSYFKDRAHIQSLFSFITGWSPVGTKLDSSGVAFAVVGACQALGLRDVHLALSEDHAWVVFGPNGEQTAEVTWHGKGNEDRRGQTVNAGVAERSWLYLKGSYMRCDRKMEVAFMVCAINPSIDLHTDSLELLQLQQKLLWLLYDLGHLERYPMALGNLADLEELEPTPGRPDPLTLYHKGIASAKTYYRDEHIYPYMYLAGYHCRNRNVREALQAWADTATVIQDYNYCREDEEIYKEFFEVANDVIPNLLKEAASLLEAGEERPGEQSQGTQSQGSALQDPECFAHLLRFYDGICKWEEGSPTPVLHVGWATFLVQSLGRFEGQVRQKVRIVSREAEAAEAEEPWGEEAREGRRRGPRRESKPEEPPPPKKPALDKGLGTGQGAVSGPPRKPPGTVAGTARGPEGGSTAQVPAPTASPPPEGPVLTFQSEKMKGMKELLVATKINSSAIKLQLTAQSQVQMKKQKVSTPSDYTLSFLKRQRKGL
Sequence of hERG (human Ether-a-go-go Related Gene) (Q12809 whole entry): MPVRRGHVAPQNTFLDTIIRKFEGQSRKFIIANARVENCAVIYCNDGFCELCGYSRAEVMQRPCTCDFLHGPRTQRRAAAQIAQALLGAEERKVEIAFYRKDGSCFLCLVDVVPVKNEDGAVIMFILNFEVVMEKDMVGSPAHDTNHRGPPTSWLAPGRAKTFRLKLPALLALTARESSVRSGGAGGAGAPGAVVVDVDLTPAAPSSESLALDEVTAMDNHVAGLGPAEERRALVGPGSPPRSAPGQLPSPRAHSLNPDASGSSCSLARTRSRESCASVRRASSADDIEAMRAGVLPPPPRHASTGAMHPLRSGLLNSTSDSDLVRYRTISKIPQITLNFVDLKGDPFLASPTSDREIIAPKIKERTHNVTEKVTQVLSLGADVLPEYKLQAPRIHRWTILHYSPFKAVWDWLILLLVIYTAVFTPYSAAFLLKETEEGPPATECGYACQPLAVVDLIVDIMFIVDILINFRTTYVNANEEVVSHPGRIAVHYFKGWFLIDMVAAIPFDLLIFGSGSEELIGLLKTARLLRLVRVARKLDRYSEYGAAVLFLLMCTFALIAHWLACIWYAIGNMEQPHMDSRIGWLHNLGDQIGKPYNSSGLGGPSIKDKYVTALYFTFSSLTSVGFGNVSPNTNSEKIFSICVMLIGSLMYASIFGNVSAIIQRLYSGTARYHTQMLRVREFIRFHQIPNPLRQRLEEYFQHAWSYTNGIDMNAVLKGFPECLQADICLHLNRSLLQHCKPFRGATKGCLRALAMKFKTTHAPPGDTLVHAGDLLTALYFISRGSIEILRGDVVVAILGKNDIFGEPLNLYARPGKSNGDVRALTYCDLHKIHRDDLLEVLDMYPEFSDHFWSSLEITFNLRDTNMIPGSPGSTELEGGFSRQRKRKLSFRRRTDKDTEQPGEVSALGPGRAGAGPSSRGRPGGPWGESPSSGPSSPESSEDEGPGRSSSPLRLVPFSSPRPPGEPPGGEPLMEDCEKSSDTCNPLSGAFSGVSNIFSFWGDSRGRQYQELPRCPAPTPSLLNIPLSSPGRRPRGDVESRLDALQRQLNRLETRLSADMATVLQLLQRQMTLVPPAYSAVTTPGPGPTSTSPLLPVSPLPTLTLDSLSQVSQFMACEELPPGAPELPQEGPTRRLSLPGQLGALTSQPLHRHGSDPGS

One may read the IC50 as the concentration that inhibits the measured activity by half. Regarding `C=C1C[C@H]2CC[C@@H]1N[C@@H]2C(=O)N1CCC2(CC1)CN(c1ncncc1Oc1ccc(F)cc1C(=O)N(C(C)C)C(C)C)C2` [Example 8, 5-fluoro-2-[(4-{7-[(1S,3S,4R)-6-methylidene-2-azabicyclo[2.2.2]octane-3-carbonyl]-2,7-diazaspiro[3.5]nonan-2-yl}pyrimidin-5-yl)oxy]-N,N-di(propan-2-yl)benzamide], the “mRNA at 1 μM (% control) MEIS1” value in the series with MEIS1 is 17.1 % control. Further, the IC50 with MOLM-13 cells (Homo sapiens) was determined as 110 nM. Also, it took 90 nM to reach half-maximal inhibition with RS4; 11 cells (Homo sapiens) (IC50). For the same compound, the “mRNA at 1 μM (% control) HOXA9” value in the series with HOXA9 was found to be 40.1 % control. In series [1], the midpoint of inhibition, the IC50, lay at 12300 nM; the “gap between RS4; 11 proliferation IC50 and hERG current IC50” value (shortened to “gap between RS4”) was “more than 100 fold”; the “hERG/RS4; 11” value turned out to be 137.
As to `CC(C)N(C(=O)c1cc(F)ccc1Oc1cncnc1N1CC2(CCN(C(=O)[C@H]3N[C@H]4CC[C@@H]3C(=O)C4)CC2)C1)C(C)C` [Example 12, 5-fluoro-2-[(4-{7-[(1S,3S,4S)-5-oxo-2-azabicyclo[2.2.2]octane-3-carbonyl]-2,7-diazaspiro[3.5]nonan-2-yl}pyrimidin-5-yl)oxy]-N,N-di(propan-2-yl)benzamide], in the series on MOLM-13 cells (Homo sapiens), the IC50 is 250 nM. Besides, half-maximal inhibition with RS4; 11 cells (Homo sapiens) (IC50) was put at 250 nM. In addition, in series [1], the IC50 is over 100000 nM; the “gap between RS4” value is listed as “more than 100 fold”; the “hERG/RS4; 11” value is over 400.
For the compound `C=C1C[C@@H]2CC[C@H]1[C@@H](C(=O)N1CC3(C1)CN(c1ncncc1Oc1ccc(F)cc1C(=O)N(C(C)C)C(C)C)C3)N2` [Example 7, 5-fluoro-2-[(4-{6-[(1S,3S,4R)-5-methylidene-2-azabicyclo[2.2.2]octane-3-carbonyl]-2,6-diazaspiro[3.3]heptan-2-yl}pyrimidin-5-yl)oxy]-N,N-di(propan-2-yl)benzamide], the “mRNA transcription inhibition activity” value in the series with MEIS1 was “showed the mRNA transcription inhibition activity”.
Take `CC(C)N(C(=O)c1cc(F)ccc1Oc1cncnc1N1CC2(CN(C(=O)[C@H]3NC4CCC3CC4)C2)C1)C(C)C` [Example 11, 2-[(4-{6-[(1R,3S,4R)-2-azabicyclo[2.2.2]octane-3-carbonyl]-2,6-diazaspiro[3.3]heptan-2-yl}pyrimidin-5-yl)oxy]-5-fluoro-N,N-di(propan-2-yl)benzamide]: in the series with MEIS1, the “mRNA at 1 μM (% control) MEIS1” value came to 13.1 % control and the “mRNA transcription inhibition activity” value is on record as “showed the mRNA transcription inhibition activity”. In addition, the “mRNA at 1 μM (% control) HOXA9” value in the series on HOXA9 was 36.5 % control. Also, the “hERG/RS4; 11” value in series [1] was over 500. The IC50 in series [1] (setting [3]) is over 10000 nM.
`CC(C)N(C(=O)c1cc(F)ccc1Oc1cncnc1N1CC2(CN(C(=O)[C@H]3N[C@H]4CC[C@@H]3C[C@@H]4CC3CC3)C2)C1)C(C)C` [Example 3, 2-[(4-{6-[(1S,3S,4R,6S)-6-(cyclopropylmethyl)-2-azabicyclo[2.2.2]octane-3-carbonyl]-2,6-diazaspiro[3.3]heptan-2-yl}pyrimidin-5-yl)oxy]-5-fluoro-N,N-di(propan-2-yl)benzamide]: in the series with MEIS1, the “mRNA at 1 μM (% control) MEIS1” value stood at 11.9 % control and the “mRNA transcription inhibition activity” value is “showed the mRNA transcription inhibition activity”. The compound further displayed an IC50 in the series with MOLM-13 cells (Homo sapiens) of 10 nM. Moreover, in the series on RS4; 11 cells (Homo sapiens), the IC50 turned out to be 30 nM. For the same compound, the “cell proliferation inhibition activity” value with RS4; 11 cells is “potent”. Besides, the 50% inhibitory concentration (IC50) in series [2] (Menin-MLL binding inhibition) was under 3 nM. In addition, in series [2] (statement in words on the table of Test 1), the “Menin-MLL binding inhibition activity” value is “particularly potent”. For the same compound, in the series on HOXA9, the “mRNA at 1 μM (% control) HOXA9” value stood at 39.6 % control. In series [1], the midpoint of inhibition, the IC50, lay at 6200 nM; the “gap between RS4” value is “more than 100 fold”; the “hERG/RS4; 11” value was found to be 620.
Take `CC(C)N(C(=O)c1cc(F)ccc1Oc1cncnc1N1CC2(CN(C(=O)[C@H]3N[C@@H]4CC[C@H]3C4)C2)C1)C(C)C` [Example 15, 2-[(4-{6-[(1R,3S,4S)-2-azabicyclo[2.2.1]heptane-3-carbonyl]-2,6-diazaspiro[3.3]heptan-2-yl}pyrimidin-5-yl)oxy]-5-fluoro-N,N-di(propan-2-yl)benzamide]: in series [1], the IC50 is over 100000 nM and the “hERG/RS4; 11” value was over 6250.
For the compound `[2H]C([2H])=C1C[C@@H]2CC[C@H]1[C@@H](C(=O)N1CCC3(CC1)CN(c1ncncc1Oc1ccc(F)cc1C(=O)N(C(C)C)C(C)C)C3)N2` [Example 20, 5-Fluoro-2-[(4-{7-[(1S,3S,4R)-5-(^2H2)methylidene-2-azabicyclo[2.2.2]octane-3-carbonyl]-2,7-diazaspiro[3.5]nonan-2-yl}pyrimidin-5-yl)oxy]-N,N-di(propan-2-yl)benzamide], the IC50 in the series with MOLM-13 cells (Homo sapiens) is under 30 nM.
In the case of `C=C1C[C@H]2CC[C@@H]1N[C@@H]2C(=O)N1CC2(C1)CN(c1ncncc1Oc1ccc(F)cc1C(=O)N(C(C)C)C(C)C)C2` [Example 9, 5-fluoro-2-[(4-{6-[(1S,3S,4R)-6-methylidene-2-azabicyclo[2.2.2]octane-3-carbonyl]-2,6-diazaspiro[3.3]heptan-2-yl}pyrimidin-5-yl)oxy]-N,N-di(propan-2-yl)benzamide], the “mRNA at 1 μM (% control) MEIS1” value in the series with MEIS1 worked out at 17.0 % control. The same compound came in with a half-maximal inhibitory concentration (IC50) in the series with MOLM-13 cells (Homo sapiens) of 80 nM. Moreover, in the series with RS4; 11 cells (Homo sapiens), the IC50 was determined as 80 nM. In addition, the “mRNA at 1 μM (% control) HOXA9” value in the series on HOXA9 is given as 41.2 % control. In series [1], the concentration for half-maximal inhibition (IC50) was over 10000 nM; the “gap between RS4” value is “more than 100 fold”; the “hERG/RS4; 11” value is given as over 125.
`CC(C)N(C(=O)c1cc(F)ccc1Oc1cncnc1N1CC2(CCN(C(=O)[C@H]3N[C@H]4CC[C@@H]3[C@@H](F)[C@H]4CC3CC3)CC2)C1)C(C)C` [Example 14, 2-[(4-{7-[(1S,3S,4S,5S,6S)-6-(cyclropylmethyl)-5-fluoro-2-azabicyclo[2.2.2]octane-3-carbonyl]-2,7-diazaspiro[3.5]nonan-2-yl}pyrimidin-5-yl)oxy]-5-fluoro-N,N-di(propan-2-yl)benzamide]: the figures for the IC50 (in the series on MOLM-13 cells; with RS4; 11 cells; in series [1] (setting [3])) were 40 nM, 20 nM and 11700 nM, respectively. Also, the “cell proliferation inhibition activity” value in the series with RS4; 11 cells was “potent”. Also, the “gap between RS4” value in series [1] was “more than 100 fold”.
As for `CC(C)N(C(=O)c1cc(F)ccc1Oc1cncnc1N1CCC2(CCN(C(=O)[C@H]3N[C@H]4CC[C@@H]3CC4)C2)C1)C(C)C` (stereo partly drawn) [Example 2, 2-[(4-{7-[(1R,3S,4R)-2-Azabicyclo[2.2.2]octane-3-carbonyl]-2,7-diazaspiro[4.4]nonan-2-yl}pyrimidin-5-yl)oxy]-5-fluoro-N,N-di(propan-2-yl)benzamide], the concentration for half-maximal inhibition (IC50) with MOLM-13 cells (Homo sapiens) amounted to 810 nM; in the series with RS4; 11 cells (Homo sapiens), 870 nM; in series [1], 11800 nM. Further, the “hERG/RS4; 11” value in series [1] came out at 13.6.
In the case of `CC(C)N(C(=O)c1cc(F)ccc1Oc1cncnc1N1CC2(CCN(C(=O)[C@H]3N[C@H]4CC[C@@H]3[C@H](F)[C@@H]4CC3CC3)CC2)C1)C(C)C` [Example 19, 2-[(4-{7-[(1S,3S,4S,5R,6R)-6-(cyclopropylmethyl)-5-fluoro-2-azabicyclo[2.2.2]octane-3-carbonyl]-2,7-diazaspiro[3.5]nonan-2-yl}pyrimidin-5-yl)oxy]-5-fluoro-N,N-di(propan-2-yl)benzamide], the IC50 in the series with MOLM-13 cells (Homo sapiens) was under 10 nM. Besides, the IC50 with RS4; 11 cells (Homo sapiens) is under 10 nM. Moreover, in series [1], the IC50 came to 6900 nM; the “gap between RS4” value was “more than 100 fold”; the “hERG/RS4; 11” value is given as over 690.
Consider `CC(C)N(C(=O)c1cc(F)ccc1Oc1cncnc1N1CC2(CCN(C(=O)[C@H]3N[C@@H]4CC[C@H]3C4)CC2)C1)C(C)C` [Example 16, 2-[(4-{7-[(1R,3S,4S)-2-azabicyclo[2.2.1]heptane-3-carbonyl]-2,7-diazaspiro[3.5]nonan-2-yl}pyrimidin-5-yl)oxy]-5-fluoro-N,N-di(propan-2-yl)benzamide], for which, in the series with MOLM-13 cells (Homo sapiens), the IC50 is 40 nM. Also, in series [1], the IC50 is over 100000 nM and the “hERG/RS4; 11” value is on record as over 3571.
As for `C=C1C[C@@H]2CC[C@H]1[C@@H](C(=O)N1CCC3(CC1)CN(c1ncncc1Oc1ccc(F)cc1C(=O)N(C(C)C)C(C)C)C3)N2` [Example 6, 5-Fluoro-2-[(4-{7-[(1S,3S,4R)-5-methylidene-2-azabicyclo[2.2.2]octane-3-carbonyl]-2,7-diazaspiro[3.5]nonan-2-yl}pyrimidin-5-yl)oxy]-N,N-di(propan-2-yl)benzamide], in the series on MEIS1, the “mRNA at 1 μM (% control) MEIS1” value worked out at 15.1 % control and the “mRNA transcription inhibition activity” value is recorded as “showed the mRNA transcription inhibition activity”. Further, the IC50 in the series with MOLM-13 cells (Homo sapiens) is 30 nM. The same compound returned an IC50 in the series on RS4; 11 cells (Homo sapiens) of 20 nM. Besides, in the series on HOXA9, the “mRNA at 1 μM (% control) HOXA9” value is recorded as 39.3 % control.
With `C=C1C[C@@H]2C[C@H]1[C@@H](C(=O)N1CCC3(CC1)CN(c1ncncc1Oc1ccc(F)cc1C(=O)N(C(C)C)C(C)C)C3)N2` [Example 18, 5-fluoro-2-[(4-{7-[(1S,3S,4R)-5-methylidene-2-azabicyclo[2.2.1]heptane-3-carbonyl]-2,7-diazaspiro[3.5]nonan-2-yl}pyrimidin-5-yl)oxy]-N,N-di(propan-2-yl)benzamide], the figures for the IC50 (in the series on MOLM-13 cells (Homo sapiens); in series [1]) were 40 nM and 46100 nM, respectively. The “hERG/RS4; 11” value in series [1] is over 2095.
